Tests used:
recombinant human UCK2 = target: T1, recombinant human UCK2 (Homo sapiens, UniProt Q9BZX2); experiment: In vitro enzyme activity assay with recombinant human UCK2 (PK/LDH-coupled, UV 340 nm); type: biochemical
T1 construct: 6xHis (C); made in house; host or cells: E. coli BL21(DE3)
T1 sequence (Q9BZX2 1-261): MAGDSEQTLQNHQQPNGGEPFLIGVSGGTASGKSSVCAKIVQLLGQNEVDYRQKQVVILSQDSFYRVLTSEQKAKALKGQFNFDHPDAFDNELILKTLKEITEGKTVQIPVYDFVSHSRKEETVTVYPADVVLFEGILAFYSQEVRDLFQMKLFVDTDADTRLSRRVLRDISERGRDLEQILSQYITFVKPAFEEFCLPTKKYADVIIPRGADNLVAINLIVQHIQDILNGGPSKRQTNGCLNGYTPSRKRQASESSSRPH
Text: In order to guide our SAR studies, we developed an enzymatic assay to evaluate the inhibitory effect of each CPU analog against recombinant human UCK2, which was expressed and purified in E. coli. A continuous assay system was optimized by coupling UCK2 activity to the pyruvate kinase (PK) reaction, which in turn was coupled to lactate dehydrogenase (LDH). Overall reaction progress was continuously monitored by detecting the UV absorption change at 340 nm, which was correlated with the ATP consumption by UCK2. The effect of 250 μM of each CPU analog on UCK2 activity was evaluated in the presence of 50 μM uridine. […] We then individually measured the steady state kinetic parameters of UCK2 using uridine, CPU and 5-F-CPU as substrates. Their KM values were 86, 25, and 41 μM, and their kcat/KM values were 2.6×10^5, 1.5×10^5, and 7.3×10^4 s^−1 M^−1 (FIG. 5B).
Cloning, expression and purification of recombinant human UCK2 and CMPK1: Uridine cytidine kinase 2 (UCK2) was cloned into the pET-21a(+) vector using Ndel and Notl as restriction sites. […] The resulting plasmid was transformed into E. coli BL21(DE3) cells by electroporation, recovered in SOC at 37° C. for 1 h and plated onto LB agar plates with kanamycin overnight at 37° C. A single, isolated colony was inoculated into 30 mL LB supplemented with 50 μg/mL kanamycin and grown at 37° C. with shaking for 15 h. The next day, these cells were used to inoculate 1 L autoclaved LB with 50 μg/mL kanamycin. The flask was shaken at 37° C. When an optical density (OD600) of 0.7 was reached, protein expression was induced with 0.5 mM isopropyl β-D-1-thiogalactopyranoside (IPTG). The temperature was changed to 18° C. and flasks were shaken for an additional 15 h. The cell pellets were collected by spinning the media at 5000 rpm for 10 min. The pellets obtained were frozen by liquid nitrogen and stored in −80° C. for protein purification. Cell pellets were thawed and resuspended in lysis buffer containing Tris (40 mM, pH 7.5), NaCl (10 mM), imidazole (10 mM), DTT (1 mM). Cells were lysed by sonication and centrifuged at 25,000 g for 1 h. The supernatant was incubated with a slurry of Ni-NTA resin for 1 h at 4° C. and loaded onto a column. The nickel column wash buffer was Tris (40 mM, pH 7.5), NaCl (10 mM), DTT (1 mM) and each wash step contained increasing concentrations of imidazole (10, 50, or 250 mM). After SDS-PAGE confirmation of the protein fractions, protein was further purified using fast protein liquid chromatography (FPLC) using buffer A (50 mM Tris-HCl pH 8, 1 mM dithiothreitol (DTT), 10% glycerol) and elution buffer B (50 mM Tris-HCl pH 8, 1mM dithiothreitol (DTT), 10% glycerol with 500 mM NaCl) with changing gradient over a 20 minute from 2% to 100% Buffer B. FPLC eluents containing the protein was concentrated using Am icon centrifugal filter with 3K cut-off and the enzyme was stored in storage buffer (50 mM Tris-HCl pH 7.5, 10% glycerol). Human cytidine monophosphate kinase 1 (CMPK1) was purified as previously described (Deans et al., 2016).
In vitro enzyme activity assays with recombinant human UCK2: To continuously monitor reaction progress spectrophotometrically, ATP hydrolysis was coupled to NADH oxidation via pyruvate kinase (PK) and lactate dehydrogenase (LDH). Reactions were conducted at room temperature in 100 μL in 96-well plates (Greiner Bio-One, UV-Star, Half Area). Mixtures contained 20 mM HEPES (pH 7.2), 100 mM KCl, 2 mM MgCl2, 300 μM ATP, 0-500 μM uridine, 0-500 μM CPU analogs, 10 nM UCK2, 1 mM phosphoenolpyruvate, 500 μM NADH and 20 units/mL of PK and LDH. Progress was monitored in the linear region using a Biotek Synergy HT and kinetic and inhibition constants were determined using GraphPad Prism 7 (GraphPad Software).

[1] = system: intracellular uridine and cytidine nucleotide levels; experiment: LC-MS/MS analysis of intracellular nucleotides in A549 cells; type: cell-based; settings: 250 μM with 1 μM GSK983, 5 μM uridine, 6 h
Method: FIG. 7. LC-MS analysis of intracellular nucleotides. (A) LC-MS analysis of intracellular uridine and cytidine nucleotide levels after 6 h treatments. In all assays, the culture medium was supplemented with 5 μM uridine and 1 μM GSK983. Error bars represent ±S.D. of two replicates. (B) LC-MS detection of mono-, di- and tri-phosphates of CPU and 5-F-CPU in cells. LC-MS/MS was performed on an Agilent 1290 infinity II LC system tandem with 6370 triple quad mass spectrometer using ion pairing chromatography. LC separation was performed at 40° C. with a solvent flow rate of 0.25 mL/min on a Zorbax RRHD Extended-C18 column (2.1×150 mm, 1.8 μM). Buffer A contained 97% H2O, 3% MeOH, 5 mM tributylamine, 5.5 mM Acetic acid and 1 μM medronic acid with pH=5.0; Buffer B contains ca. 100% MeOH, 5 mM tributylamine, 5.5 mM Acetic acid and 5 μM medronic acid with pH=7.0 The initial mobile phase composition was 100% solvent A, and a constant or linear gradient was applied after sample injection with eluent B varying as follows: 0% at 2.5 min, 20% at 7.5 min, 45% at 14 min, 99% at 20 to 23 min, and 0% from 23.1 to 27.1 min. […] Samples were measured in the negative ESI mode with capillary voltage at −3.5 kV. […]
With optimized sampling and detection method in hand, pyrimidine nucleotide levels were measured in cells cultured with either 250 μM CPU, 5-F-CPU or 5′-F-CPU in combination with 1 μM GSK983 (FIG. 7A). […]

DENV-2 virus [2] = experiment: DENV antiviral assay, DENV-Luc replication in A549 cells (FIGS. 8 and 9); type: cell-based, dengue serotype 2 (DENV-2) strain 16681; settings: single agents, 20 μM uridine
Method: (§1) DENV-Luc reporter virus generation: The design of the pDENV-Luc infectious clone derived from dengue serotype 2 (DENV-2) strain 16681 was described in detail by Marceau et al (Marceau et al., 2016). The plasmid was linearized with Xbal and in vitro transcribed into the genomic RNA of DENV-Luc virus using the T7 Megascript Kit (Ambion) in the presence of m7G(5′)ppp(5′)G RNA Cap Structure Analog (NEB). 5 μg DENV-Luc RNA was electroporated into 2×10^6 Vero cells. The transfected cells were resuspended with Dulbecco's modified Eagle's medium (DMEM; Invitrogen) with 10% FBS and 100 U/ml penicillin-streptomycin and transferred into a T-175 flask incubated at 37° C. with 5% CO2. Supernatants were collected and replenished with fresh medium every 24 h from day 17 to 24 post-transfection, pooled together, clarified by centrifugation and stored in aliquots at −80° C. The amount of infectious DENV-Luc virus in the stock was titrated using the TCID50 assay and calculated by the Spearman & Kärber algorithm as described previously (Hierholzer and Killington, 1996).
DENV antiviral assays (For FIGS. 8 and 9): A549 cells were plated overnight at 5,000 cells/well in 96-well plates in complete DMEM and incubated for 24 h at 37° C. Cells were then treated with pyrimidine de novo synthesis inhibitors, and/or salvage inhibitors, and/or R1479 in DMEM supplemented with 20 μM uridine. Four hours after drug addition, cells were infected with DENV-2 virus at a MOI=0.1. After 72 h, DENV-Luc replication was monitored by the production of Renilla luciferase, which was measured using the Renilla-Glo Luciferase Assay System (Promega) according to the specifications of the manufacturer. For the accompanying cell viability assay, A549 cells were seeded at 5,000 cells/well in 96-well plates in complete DMEM and incubated for 24 h at 37° C. Cell were then treated with pyrimidine de novo synthesis inhibitors, and/or salvage inhibitors, and/or R1479 in DMEM supplemented with 20 μM uridine. Following 48 h treatment, cell viability was monitored by ATP levels, which was measured using the CellTiter-Glo Luciferase Assay System (Promega) according to the specifications of the manufacturer.

[3] = system: a variety of unrelated viruses; settings: Harvey et al. (2009); read-out: EC50, replication of a variety of unrelated viruses in vitro; cited from earlier work
DENV-2 virus [4] = experiment: Pilot antiviral assay, DENV-Luc replication in A549 cells (FIG. 2); type: cell-based, dengue serotype 2 (DENV-2) strain 16681; settings: alone, 20 μM exogenous uridine
Method: We therefore focused our efforts on evaluating CPU in combination with GSK983. Using an infectious clone of dengue serotype 2 (DENV-2) strain 16681 engineered to express a luciferase reporter, the efficacy and cytotoxicity of combinations of GSK983 and CPU were assessed in infected or uninfected cultures of the A549 lung carcinoma cell line (FIG. 2). […] However, a combination of 0.2 μM GSK and 250 μM CPU inhibited ca. 50% of virus replication.
as §1
Pilot Antiviral Assays (for FIG. 2): A549 cells were plated overnight at 20,000 cells/well in 24-well plates in complete DMEM and incubated for 24 h at 37° C. Cell were then treated with pyrimidine de novo synthesis and/or salvage inhibitors in DMEM supplemented with 20 μM uridine. Four hours after drug addition, cells were infected with DENV-2 virus at a MOI=0.01. After 48 h, DENV-Luc replication was monitored by the production of Renilla luciferase, which was measured using the Renilla-Glo Luciferase Assay System (Promega) according to the specifications of the manufacturer. For the accompanying cell viability assay, A549 cells were seeded into 24-well plates at a density of 20,000 cells/well incubated for 24 h at 37° C. Cell were then treated with pyrimidine de novo synthesis and/or salvage inhibitors in DMEM supplemented with 20 μM uridine. Following 48h treatment, cells were harvested, and the density of viable cells was determined by flow cytometry (FSC/SSC) using a BD Accuri C6 Flow Cytometer.

| SMILES | UCK2 substrate or not (ATP consumption) (recombinant human UCK2; 250 μM analog in the presence of 50 μM uridine) | Ki (recombinant human UCK2; competitive inhibitors of UCK2, Lineweaver-Burk analysis) [µM] | depletion of intracellular uridine and cytidine nucleotide levels [1] | antiviral activity as single agent (DENV-2 virus [2]) | EC50 [3] [µM] | inhibition of replication of DENV-2 virus, single agent (DENV-2 virus [4]) |
| --- | --- | --- | --- | --- | --- | --- |
| O=c1ccn([C@@H]2C=C(CF)[C@@H](O)[C@H]2O)c(=O)[nH]1 [5′-F-CPU, 1-((1R,4R,5S)-3-(fluoromethyl)-4,5-dihydroxycyclopent-2-en-1-yl)pyrimidine-2,4(1H,3H)-dione] | inhibitors but not substrates | 170 | did not deplete |  |  |  |
| O=C(N[C@@H]1CCCc2c1[nH]c1ccc(Cl)cc21)c1ccccn1 [GSK983] |  |  |  | neither GSK983 nor CPU were effective | 0.005 to 0.02 | neither GSK nor CPU alone inhibited replication |

Reference: patent publication US20220280513A1, “ENHANCING THE ANTIVIRAL EFFICACY OF RNA VIRUS INHIBITION BY COMBINATION WITH MODULATORS OF PYRIMIDINE METABOLISM” (The Board of Trustees of the Leland Stanford Junior …, priority 2019, published 2022)
